Test results taken from patent publication US7786141B2 (Vertex Pharmaceuticals Incorporated, priority 2004, dated 2010).

What was measured:
M4 muscarinic receptor = target: T1, M4 muscarinic receptor (Homo sapiens, UniProt P08173); test: Functional mobilization of intracellular calcium (FLIPR) in M4-CHO cells; format: cell-based; conditions: M4 receptor, calcium mobilization; for Emax: read-out: M4 Efficacy
T1 construct: expressed in transfected cells; host or cells: CHO (M4-CHO)
T1 sequence (P08173 1-479): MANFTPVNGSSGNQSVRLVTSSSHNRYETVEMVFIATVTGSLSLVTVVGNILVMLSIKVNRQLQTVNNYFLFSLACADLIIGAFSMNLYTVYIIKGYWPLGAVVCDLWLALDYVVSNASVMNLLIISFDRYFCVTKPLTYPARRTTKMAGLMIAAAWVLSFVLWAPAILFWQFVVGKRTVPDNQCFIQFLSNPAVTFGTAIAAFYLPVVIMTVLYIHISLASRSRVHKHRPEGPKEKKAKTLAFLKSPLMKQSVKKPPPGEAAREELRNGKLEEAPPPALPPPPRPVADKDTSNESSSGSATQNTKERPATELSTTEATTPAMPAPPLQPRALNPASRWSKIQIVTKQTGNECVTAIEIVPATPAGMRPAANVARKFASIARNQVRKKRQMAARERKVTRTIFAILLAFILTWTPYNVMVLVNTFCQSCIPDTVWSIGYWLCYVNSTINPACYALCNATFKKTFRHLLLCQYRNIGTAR
Procedure, shortened: (§1)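 Intracellular calcium rise is measured by FLIPR fluorescence over 60 sec in CHO cells carrying human M1 or M4 receptors. Compounds are tested alone as agonists, or pre-incubated 15 min (or co-applied) ahead of carbachol at its EC80 to detect inhibition.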

M1 muscarinic receptor = target: T2, M1 muscarinic receptor (Homo sapiens, UniProt P11229); test: Functional mobilization of intracellular calcium (FLIPR) in M1-CHO cells; format: cell-based; conditions: M1 receptor, calcium mobilization; for Emax: read-out: M1 Efficacy
T2 construct: expressed in transfected cells; host or cells: CHO (M1-CHO)
T2 sequence (P11229 1-460): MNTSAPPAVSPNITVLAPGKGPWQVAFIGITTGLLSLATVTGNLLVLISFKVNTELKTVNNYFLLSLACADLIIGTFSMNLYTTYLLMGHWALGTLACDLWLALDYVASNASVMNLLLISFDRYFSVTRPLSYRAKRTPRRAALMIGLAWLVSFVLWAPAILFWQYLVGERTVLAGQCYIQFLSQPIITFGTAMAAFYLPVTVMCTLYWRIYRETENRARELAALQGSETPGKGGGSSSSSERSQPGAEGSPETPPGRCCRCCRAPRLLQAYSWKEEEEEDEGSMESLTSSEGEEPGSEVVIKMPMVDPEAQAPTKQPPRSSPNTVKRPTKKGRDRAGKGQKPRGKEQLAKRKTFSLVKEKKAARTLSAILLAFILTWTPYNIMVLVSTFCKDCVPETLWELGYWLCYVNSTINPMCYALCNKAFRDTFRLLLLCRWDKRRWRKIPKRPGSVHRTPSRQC
Procedure, shortened: as §1

Compound | M4 Activity (M4 muscarinic receptor) | Emax (M4 muscarinic receptor) [%] | M1 Activity (M1 muscarinic receptor) | Emax (M1 muscarinic receptor) [%]
CCOC(=O)N1CCC(N2CCC3(CC2)CN(C(=O)OC(C)C)c2ccc(F)cc23)CC1 [compound 145] | x (activity was measured to be greater than 1.0 μM) | > 85 | xxx (activity was measured to be less than 0.1 μM) | > 85
CCOC(=O)N1CCC(N2CCC3(CC2)CN(C(C)=O)c2ccc(-c4ccccc4F)cc23)CC1 [compound 146] | xxx (activity was measured to be less than 0.1 μM) | > 85 | xxx (activity was measured to be less than 0.1 μM) | > 85
Clc1ccc2c(c1)C1(CCN(CC3CC4C=CC3C4)CC1)CN2 (centres unmarked) [compound 147] | xx (activity was measured to be between 0.1 μM and 1.0 μM) | > 85 | xxx (activity was measured to be less than 0.1 μM) | 65 to 85
CCOC(=O)N1C2CCC1CC(N1CCC3(CC1)C(=O)N(C)c1ccccc13)C2 (centres unmarked) [compound 149] | x (activity was measured to be greater than 1.0 μM) | > 85 | xxx (activity was measured to be less than 0.1 μM) | > 85
CCOC(=O)N1CCC(N2CCC3(CC2)CN(C(C)=O)c2ccc(-c4ccccc4OC)cc23)CC1 [compound 150] | x (activity was measured to be greater than 1.0 μM) | > 85 | xxx (activity was measured to be less than 0.1 μM) | 65 to 85
CC(=O)N1CC2(CCN(C3CCN(C(=O)OC4CCC4)CC3)CC2)c2cc(C)ccc21 [compound 151] | xxx (activity was measured to be less than 0.1 μM) | > 85 | xxx (activity was measured to be less than 0.1 μM) | > 85
Fc1ccc2c(c1)C1(CCN(C3CCCCC3)CC1)CO2 [compound 152] | x (activity was measured to be greater than 1.0 μM) | > 85 | xx (activity was measured to be between 0.1 μM and 1.0 μM) | 65 to 85
CCOC(=O)N1C2CCC1CC(N1CCC3(CC1)CNc1ccccc13)C2 (centres unmarked) [compound 153] | xxx (activity was measured to be less than 0.1 μM) | > 85 | xxx (activity was measured to be less than 0.1 μM) | > 85
COC(=O)N1CCC(N2CCC3(CC2)CN(C(=O)N(C)C)c2ccc(F)cc23)CC1 [compound 154] | xxx (activity was measured to be less than 0.1 μM) | > 85 | xxx (activity was measured to be less than 0.1 μM) | 65 to 85
Clc1ccc2c(c1)C1(CCN(C3CCCCC3)CC1)CN2 [compound 155] | x (activity was measured to be greater than 1.0 μM) | > 85 | xxx (activity was measured to be less than 0.1 μM) | > 85
COC(=O)N1C2CCC1CC(N1CCC3(CC1)COc1ccc(F)cc13)C2 (centres unmarked) [compound 156] | xxx (activity was measured to be less than 0.1 μM) | > 85 | xxx (activity was measured to be less than 0.1 μM) | 65 to 85
Clc1ccc2c(c1)C1(CCN(CC3CCCCC3)CC1)CN2 [compound 157] | x (activity was measured to be greater than 1.0 μM) | > 85 | xxx (activity was measured to be less than 0.1 μM) | 65 to 85
CC(=O)N[C@H]1CC2(CCN(C3C[C@H]4CC[C@@H]3C4)CC2)c2ccccc21 (some centres unmarked) [compound 158] | x (activity was measured to be greater than 1.0 μM) | > 85 | xxx (activity was measured to be less than 0.1 μM) | > 85
CC(=O)NC1CC2(CCN(C3CCCCCC3)CC2)c2ccccc21 (centres unmarked) [compound 159] | x (activity was measured to be greater than 1.0 μM) | > 85 | xx (activity was measured to be between 0.1 μM and 1.0 μM) | > 85
CC(C)COC(=O)N1C2CCC1CC(N1CCC3(CC1)COc1ccc(F)cc13)C2 (centres unmarked) [compound 160] | xx (activity was measured to be between 0.1 μM and 1.0 μM) | > 85 | xxx (activity was measured to be less than 0.1 μM) | > 85
CC(=O)NC1CC2(CCN(C[C@H]3C[C@H]4CC[C@H]3C4)CC2)c2ccccc21 (some centres unmarked) [compound 161] | x (activity was measured to be greater than 1.0 μM) | > 85 | xx (activity was measured to be between 0.1 μM and 1.0 μM) | > 85
COCCOC(=O)N1C2CCC1CC(N1CCC3(CC1)CN(C(=O)O[C@@H]1CCOC1)c1ccc(F)cc13)C2 (some centres unmarked) [compound 162] | x (activity was measured to be greater than 1.0 μM) | > 85 | xxx (activity was measured to be less than 0.1 μM) | 65 to 85
CC(=O)N1CC2(CCN(CC3=CCCCC3)CC2)c2cc(F)ccc21 [compound 163] | xx (activity was measured to be between 0.1 μM and 1.0 μM) | > 85 | xxx (activity was measured to be less than 0.1 μM) | 65 to 85
Clc1ccc2c(c1)C1(CCO2)CCN(C[C@@H]2C[C@H]3C=C[C@H]2C3)CC1 [compound 164] | x (activity was measured to be greater than 1.0 μM) | > 85 | xx (activity was measured to be between 0.1 μM and 1.0 μM) | > 85
CCOC(=O)N1CCC(N2CCC3(CC2)CN(C(C)=O)c2ccc(-c4ccsc4)cc23)CC1 [compound 165] | x (activity was measured to be greater than 1.0 μM) | > 85 | x (activity was measured to be greater than 1.0 μM) | 65 to 85
CC(C)OC(=O)N1C2CCC1CC(N1CCC3(CC1)CN(C(=O)OC1CCC1)c1ccc(F)cc13)C2 (centres unmarked) [compound 166] | x (activity was measured to be greater than 1.0 μM) | > 85 | xxx (activity was measured to be less than 0.1 μM) | > 85
CCOC(=O)N1C2CCC1CC(N1CCC3(CC1)CN(C(=O)OC)c1ccc(F)cc13)C2 (centres unmarked) [compound 167] | xx (activity was measured to be between 0.1 μM and 1.0 μM) | > 85 | xxx (activity was measured to be less than 0.1 μM) | 65 to 85
CC(=O)N1CC2(CCN(C3CCCN(C(=O)OCCF)CC3)CC2)c2cc(F)ccc21 (centres unmarked) [compound 168] | xx (activity was measured to be between 0.1 μM and 1.0 μM) | > 85 | xx (activity was measured to be between 0.1 μM and 1.0 μM) | –
CCOC(=O)N1CCC(N2CCC3(CC2)CN(C(=O)N(C)c2ccccc2)c2ccc(F)cc23)CC1 [compound 169] | x (activity was measured to be greater than 1.0 μM) | > 85 | xxx (activity was measured to be less than 0.1 μM) | 65 to 85
